Our source for the T/C values is PubChem BioAssay AID328 (DTP/NCI, 2004).

Molecules are shown by their SMILES. Values joined by “and” are separate entries in the source; they are usually repeats but may differ in a detail not shown here. Identical values can stand only once. Inconclusive results and toxic doses are left out.

The experiment deals with BDF1 mice, P388 leukemia ip, median survival T/C. Put plainly: NCI In Vivo Anticancer Drug Screen. Data for tumor model P388 Leukemia (intraperitoneal) in B6D2F1 (BDF1) mice. The conditions noted are these: endpoint: median survival time, higher = longer survival. Summed up:
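Read-out is survival of treated animals expressed relative to the vehicle group, as a T/C ratio.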

[1] abbreviates: dose: 50.0 mg/kg/injection, schedule: Q04DX003 (ip), vehicle: saline with Tween-80.
The mark [2] stands for this setting: dose: 100.0 mg/kg/injection, schedule: Q04DX003 (ip), vehicle: saline with Tween-80.
Setting [3] is: dose: 200.0 mg/kg/injection, schedule: Q04DX003 (ip), vehicle: saline with Tween-80.
The mark [4] stands for this setting: dose: 400.0 mg/kg/injection, schedule: Q04DX003 (ip), vehicle: saline with Tween-80.
Setting [5] is: dose: 100.0 mg/kg/injection, schedule: Q01DX009 (ip), vehicle: saline with Tween-80.
Where [6] appears, read: dose: 200.0 mg/kg/injection, schedule: Q01DX009 (ip), vehicle: saline with Tween-80.
Setting [7] is: dose: 400.0 mg/kg/injection, schedule: Q01DX009 (ip), vehicle: saline with Tween-80.
Setting [8] is: dose: 100.0 mg/kg/injection, schedule: Q04DX003 (ip), vehicle: saline.
Setting [9] is: dose: 200.0 mg/kg/injection, schedule: Q04DX003 (ip), vehicle: saline.
Where [10] appears, read: dose: 400.0 mg/kg/injection, schedule: Q04DX003 (ip), vehicle: saline.
The mark [11] stands for this setting: dose: 50.0 mg/kg/injection, schedule: Q01DX009 (ip), vehicle: saline.
Setting [12] is: dose: 100.0 mg/kg/injection, schedule: Q01DX009 (ip), vehicle: saline.
[13] abbreviates: dose: 50.0 mg/kg/injection, schedule: Q01DX009 (ip), vehicle: saline with Tween-80.

Regarding `Cc1cc2nc(SCC(=O)O)[nH]c2cc1C`, the T/C reads like this: (dose: 100.0 mg/kg/injection, schedule: Q01DX009 (ip), vehicle: gum acacia) 107 % of control; (dose: 100.0 mg/kg/injection, schedule: Q04DX003 (ip), vehicle: gum acacia) 103 % of control; (dose: 200.0 mg/kg/injection, schedule: Q01DX009 (ip), vehicle: gum acacia) 100 % of control; (dose: 200.0 mg/kg/injection, schedule: Q04DX003 (ip), vehicle: gum acacia) 107 % of control; (dose: 400.0 mg/kg/injection, schedule: Q01DX009 (ip), vehicle: gum acacia) 96 % of control; (dose: 400.0 mg/kg/injection, schedule: Q04DX003 (ip), vehicle: gum acacia) 107 % of control.
For the compound `COc1cccc(C=O)c1OC`, the T/C under setting [1] is 112 % of control, the T/C under setting [2] is 107 % of control, the T/C under setting [3] is 112 % of control and the T/C under setting [4] was 107 % of control.
For `COC(=O)/C(C)=C/C1N=C1c1ccccc1` (stereo not given), for the setting “dose: 100.0 mg/kg/injection, schedule: Q01DX001 (ip), vehicle: saline with Tween-80”, the T/C was 120 % of control.
On to `COc1cccc(CCNC(=O)CCN2C(=O)c3ccccc3C2=O)c1`, for which the T/C by setting is: under setting [5], 95 % of control; under setting [6], 109 % of control; under setting [7], 100 % of control.
In the case of `Cc1cccc2c(Nc3ccc(NS(C)(=O)=O)cc3)c3ccccc3nc12`, the T/C is, setting by setting: (dose: 0.88 mg/kg/injection, schedule: Q01DX009 (ip), vehicle: saline with Tween-80) 123 % of control; (dose: 2.93 mg/kg/injection, schedule: Q04DX003 (ip), vehicle: saline with Tween-80) 118 % of control; (dose: 3.0 mg/kg/injection, schedule: Q01DX009 (ip), vehicle: saline with Tween-80) 153 % of control; (dose: 5.0 mg/kg/injection, schedule: Q01DX009 (ip), vehicle: saline with Tween-80) 166 % of control; (dose: 10.0 mg/kg/injection, schedule: Q01DX009 (ip), vehicle: saline with Tween-80) 203 % of control; (dose: 20.0 mg/kg/injection, schedule: Q01DX009 (ip), vehicle: saline with Tween-80) 197 % of control. In addition, the T/C is 150 % of control (dose: 20.0 mg/kg/injection, schedule: Q04DX003 (ip), vehicle: saline with Tween-80); 168 % of control (dose: 22.0 mg/kg/injection, schedule: Q04DX003 (ip), vehicle: saline with Tween-80); 154 % of control (dose: 30.0 mg/kg/injection, schedule: Q04DX003 (ip), vehicle: saline with Tween-80); 181 % of control (dose: 33.0 mg/kg/injection, schedule: Q04DX003 (ip), vehicle: saline with Tween-80); 245 % of control under setting [1]; 259 % of control (dose: 75.0 mg/kg/injection, schedule: Q04DX003 (ip), vehicle: saline with Tween-80). Also, the T/C is 204 % of control under setting [2] and 272 % of control under setting [3].
Regarding `C[C@]12CCC(=O)C=C1CC[C@@H]1[C@@H]2[C@@H](O)C[C@@]2(C)[C@H]1CC[C@]2(O)C(=O)COC(=O)COCC(=O)O`, the T/C is 109 % of control under setting [5], 109 % of control under setting [6] and 109 % of control under setting [7].
On to `CC1CNC(=O)O1` (stereo not given), for which the T/C runs as follows: under setting [8], 115 % of control; under setting [9], 110 % of control; under setting [10], 95 % of control.
In the case of `CC1=CP(=O)(O)CC1`, the T/C under setting [11] was 95 % of control and the T/C under setting [12] is 95 % of control.
Regarding `O=C1CCC(=O)C12CCNCC2`, the T/C under setting [8] was 100 % of control, the T/C under setting [9] is 100 % of control and the T/C under setting [10] was 109 % of control.
As for `COC1C(CNC23CC4CC(CC(C4)C2)C3)OC2OC(C)(C)OC21` (stereo not given), the T/C reads like this: (dose: 25.0 mg/kg/injection, schedule: Q01DX005 (ip), vehicle: saline with Tween-80) 101 % of control; (dose: 50.0 mg/kg/injection, schedule: Q01DX005 (ip), vehicle: saline with Tween-80) 100 % of control and 113 % of control; (dose: 100.0 mg/kg/injection, schedule: Q01DX005 (ip), vehicle: saline with Tween-80) 99 % of control and 121 % of control; (dose: 200.0 mg/kg/injection, schedule: Q01DX005 (ip), vehicle: saline with Tween-80) 105 % of control and 115 % of control.
As for `CN(C)CCC=C1c2ccccc2-c2ccccc21`, the T/C runs as follows: (dose: 12.5 mg/kg/injection, schedule: Q04DX003 (ip), vehicle: saline) 100 % of control; (dose: 25.0 mg/kg/injection, schedule: Q01DX009 (ip), vehicle: saline) 115 % of control; (dose: 25.0 mg/kg/injection, schedule: Q04DX003 (ip), vehicle: saline) 90 % of control; under setting [11], 109 % of control and 120 % of control; (dose: 50.0 mg/kg/injection, schedule: Q04DX003 (ip), vehicle: saline) 100 % of control; (dose: 75.0 mg/kg/injection, schedule: Q04DX003 (ip), vehicle: saline) 113 % of control. Besides, the T/C runs as follows: under setting [12], 113 % of control; (dose: 115.0 mg/kg/injection, schedule: Q04DX003 (ip), vehicle: saline) 95 % of control.
Consider `COc1cc(NC(C)CCCN)c2ncccc2c1Oc1ccc(Cl)cc1` (stereo not given), for which, under setting [13], the T/C is 100 % of control.
Take `N#Cc1ccc(N)c(CSc2ccccc2)c1`: the T/C reads like this: (dose: 50.0 mg/kg/injection, schedule: Q04DX002 (ip), vehicle: saline with Tween-80) 93 % of control; (dose: 100.0 mg/kg/injection, schedule: Q04DX002 (ip), vehicle: saline with Tween-80) 90 % of control; (dose: 200.0 mg/kg/injection, schedule: Q04DX002 (ip), vehicle: saline with Tween-80) 99 % of control.
Consider `CC(=O)N1c2ccccc2Sc2ccc3ccc(C(=O)CCl)cc3c21`, for which, under setting [5], the T/C was 153 % of control.
For the compound `O=[N+]([O-])c1ccc(N=Nc2c(O)ccc3ccccc23)cc1`, the T/C runs as follows: (dose: 25.0 mg/kg/injection, schedule: Q01DX009 (ip), vehicle: saline with Tween-80) 109 % of control; under setting [13], 100 % of control; under setting [1], 111 % of control; under setting [5], 96 % of control; under setting [2], 120 % of control; under setting [6], 105 % of control. The T/C under setting [3] is 110 % of control, the T/C under setting [7] was 106 % of control and the T/C under setting [4] is 105 % of control.
Take `COCc1cnc2nc(N)nc(N)c2n1`: the T/C (dose: 3.13 mg/kg/injection, schedule: Q01DX009 (ip), vehicle: other) is 116 % of control.
As to `O=C(O)C1=NN(c2cc(Cl)c(S(=O)(=O)O)cc2Cl)C(=O)C1`, the T/C by setting is: (dose: 100.0 mg/kg/injection, schedule: Q01DX009 (ip), vehicle: Klucel (hydroxypropylcellulose) (HPC)) 100 % of control; under setting [12], 110 % of control; under setting [8], 95 % of control; (dose: 175.0 mg/kg/injection, schedule: Q01DX009 (ip), vehicle: other) 100 % of control; (dose: 200.0 mg/kg/injection, schedule: Q01DX009 (ip), vehicle: Klucel (hydroxypropylcellulose) (HPC)) 108 % of control; (dose: 200.0 mg/kg/injection, schedule: Q01DX009 (ip), vehicle: saline) 120 % of control. For the same compound, the T/C is, setting by setting: under setting [9], 95 % of control; (dose: 265.0 mg/kg/injection, schedule: Q01DX009 (ip), vehicle: other) 88 % of control; (dose: 400.0 mg/kg/injection, schedule: Q01DX009 (ip), vehicle: Klucel (hydroxypropylcellulose) (HPC)) 104 % of control; (dose: 400.0 mg/kg/injection, schedule: Q01DX009 (ip), vehicle: other) 100 % of control; under setting [10], 118 % of control; (dose: 600.0 mg/kg/injection, schedule: Q01DX009 (ip), vehicle: other) 88 % of control.
As to `N/C(=N/O)c1[nH]cnc1N`, the T/C was 101 % of control (dose: 12.5 mg/kg/injection, schedule: Q01DX009 (ip), vehicle: water); 97 % of control (dose: 25.0 mg/kg/injection, schedule: Q01DX009 (ip), vehicle: water); 103 % of control (dose: 50.0 mg/kg/injection, schedule: Q01DX009 (ip), vehicle: water); 103 % of control (dose: 100.0 mg/kg/injection, schedule: Q01DX009 (ip), vehicle: water).
On to `CC(=O)C(=O)N1Cc2cc3ccccc3nc2C1`, for which the T/C reads like this: (dose: 50.0 mg/kg/injection, schedule: Q01DX001 (ip), vehicle: saline sonified) 100 % of control; (dose: 100.0 mg/kg/injection, schedule: Q01DX001 (ip), vehicle: saline sonified) 100 % of control; (dose: 200.0 mg/kg/injection, schedule: Q01DX001 (ip), vehicle: saline sonified) 100 % of control.
